Results published in patent publication US20260250257A1, “ANTIBACTERIAL AND SYNERGISTIC ACTIVE COMPOUND AND USE THEREOF” (EAST CHINA UNIVERSITY OF SCIENCE AND TECHNOLOGY, priority 2023, published 2026).
Converted amounts (≈) assume the structure as drawn.

These molecules were tested on ATCC25922 strain (Escherichia coli) (assay: Broth microdilution, antibacterial activity of the compound used alone). Conditions: not given.
Format: cell-based
Excerpt: (§1) The broth microdilution method was used to test the antibacterial effects of the compounds of the present invention against various Gram-negative bacterial strains when used alone.

Row | Compound | Antibacterial activity of the compound of Formula I, ATCC25922 [µg/mL]
1 | NC(N)=Nc1nc(-c2cccc3c(Cl)cccc23)c[nH]1 [Compound I-65] | 256
2 | NC(N)=Nc1nc(-c2cccc(NC(=O)Nc3ccc(Cl)cc3Cl)c2)c(Cl)s1 [Compound I-133] | 256
3 | Clc1cccc(-c2nc(N=C3NCCCN3)sc2Br)c1 [Compound I-185] | 256
4 | NC(N)=Nc1nc(-c2ccccc2-c2ccccc2)co1 [Compound I-73] | 256
5 | NC(N)=Nc1nc(-c2ccccc2Oc2ccccc2Cl)cs1 [Compound I-84] | 256
6 | Clc1cc(Cl)cc(-c2csc(N=C3NCCCN3)n2)c1 [Compound I-187] | 128
7 | Oc1c(Br)cc(-c2coc(N=C3NCCCN3)n2)cc1Br [Compound I-178] | 256
8 | COc1ccc(Oc2cccc(-c3csc(N=C4NCCCN4)n3)c2)c(C)c1 [Compound I-154] | 256

Same assay, conditions: read-out: Antibacterial activity of the compound of Formula I, ATCC25922

Row | MIC [µg/mL] | Compound
9 | 256 (≈ 991 µM) | NC(N)=Nc1nc(-c2cc3ccccc3o2)cs1 [Compound I-112]

What follows are molecules tested on ATCC19606 strain (Acinetobacter baumannii) in the same assay as above. Conditions: not given.
Format: cell-based
Excerpt: as §1

Row | Compound | Antibacterial activity of the compound of Formula I, ATCC19606 [µg/mL]
10 | NC(N)=Nc1nc(-c2cccc3c(Cl)cccc23)c[nH]1 [Compound I-65] | 256
11 | NC(N)=Nc1nc(-c2cccc(NC(=O)Nc3ccc(Cl)cc3Cl)c2)c(Cl)s1 [Compound I-133] | 256
12 | Clc1cccc(-c2nc(N=C3NCCCN3)sc2Br)c1 [Compound I-185] | 256
13 | NC(N)=Nc1nc(-c2ccccc2-c2ccccc2)co1 [Compound I-73] | 256
14 | NC(N)=Nc1nc(-c2ccccc2Oc2ccccc2Cl)cs1 [Compound I-84] | 256
15 | Clc1cc(Cl)cc(-c2csc(N=C3NCCCN3)n2)c1 [Compound I-187] | 256
16 | Oc1c(Br)cc(-c2coc(N=C3NCCCN3)n2)cc1Br [Compound I-178] | 256
17 | COc1ccc(Oc2cccc(-c3csc(N=C4NCCCN4)n3)c2)c(C)c1 [Compound I-154] | 256

Same assay, conditions: read-out: Antibacterial activity of the compound of Formula I, ATCC19606

Row | MIC [µg/mL] | Compound
18 | 256 (≈ 991 µM) | NC(N)=Nc1nc(-c2cc3ccccc3o2)cs1 [Compound I-112]

These molecules were tested on ATCC13883 strain (Klebsiella pneumoniae) in the same assay as above. Conditions: not given.
Format: cell-based
Excerpt: as §1

Row | Compound | Antibacterial activity of the compound of Formula I, ATCC13883 [µg/mL]
19 | NC(N)=Nc1nc(-c2cccc3c(Cl)cccc23)c[nH]1 [Compound I-65] | 256
20 | NC(N)=Nc1nc(-c2cccc(NC(=O)Nc3ccc(Cl)cc3Cl)c2)c(Cl)s1 [Compound I-133] | 256
21 | Clc1cccc(-c2nc(N=C3NCCCN3)sc2Br)c1 [Compound I-185] | 256
22 | NC(N)=Nc1nc(-c2ccccc2-c2ccccc2)co1 [Compound I-73] | 256
23 | NC(N)=Nc1nc(-c2ccccc2Oc2ccccc2Cl)cs1 [Compound I-84] | 256
24 | Clc1cc(Cl)cc(-c2csc(N=C3NCCCN3)n2)c1 [Compound I-187] | 128
25 | Oc1c(Br)cc(-c2coc(N=C3NCCCN3)n2)cc1Br [Compound I-178] | 256
26 | COc1ccc(Oc2cccc(-c3csc(N=C4NCCCN4)n3)c2)c(C)c1 [Compound I-154] | 256

Same assay, conditions: read-out: Antibacterial activity of the compound of Formula I, ATCC13883

Row | MIC [µg/mL] | Compound
27 | 256 (≈ 991 µM) | NC(N)=Nc1nc(-c2cc3ccccc3o2)cs1 [Compound I-112]

Each molecule was assayed on ATCC9027 strain (Pseudomonas aeruginosa) in the same assay as above. Conditions: not given.
Format: cell-based
Excerpt: as §1

Row | Compound | Antibacterial activity of the compound of Formula I, ATCC9027 [µg/mL]
28 | NC(N)=Nc1nc(-c2cccc3c(Cl)cccc23)c[nH]1 [Compound I-65] | 256
29 | NC(N)=Nc1nc(-c2cccc(NC(=O)Nc3ccc(Cl)cc3Cl)c2)c(Cl)s1 [Compound I-133] | 256
30 | Clc1cccc(-c2nc(N=C3NCCCN3)sc2Br)c1 [Compound I-185] | 256
31 | NC(N)=Nc1nc(-c2ccccc2-c2ccccc2)co1 [Compound I-73] | 256
32 | NC(N)=Nc1nc(-c2ccccc2Oc2ccccc2Cl)cs1 [Compound I-84] | 256
33 | Clc1cc(Cl)cc(-c2csc(N=C3NCCCN3)n2)c1 [Compound I-187] | 64
34 | Oc1c(Br)cc(-c2coc(N=C3NCCCN3)n2)cc1Br [Compound I-178] | 256
35 | COc1ccc(Oc2cccc(-c3csc(N=C4NCCCN4)n3)c2)c(C)c1 [Compound I-154] | 256

Same assay, conditions: read-out: Antibacterial activity of the compound of Formula I, ATCC9027

Row | MIC [µg/mL] | Compound
36 | 256 (≈ 991 µM) | NC(N)=Nc1nc(-c2cc3ccccc3o2)cs1 [Compound I-112]

The molecules below were run on ATCC25922 strain (Escherichia coli) (assay: Checkerboard antibacterial synergistic activity test with polymyxin E (FIC)). Conditions: combined with polymyxin E.
Format: cell-based
Design: key: FIC≤0.5 synergy; 0.5–1 additive; 1–2 indifferent; ≥2 antagonism
In short: (§2)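 Checkerboard in MH broth: colistin dilutions 16→0.015 μg/ml × test drug 256→4 μg/ml (concentrations before adding inoculum); drug mix plus bacteria, 37° C., 16 h. FIC cut-offs: ≤0.5 synergy; 0.5–1 additive; 1–2 indifferent; ≥2 antagonism.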

Row | Compound | Synergistic activity (FIC value) ATCC25922
37 | NC(N)=Nc1nc(-c2cccc3c(Cl)cccc23)c[nH]1 [Compound I-65] | 1.25
38 | NC(N)=Nc1nc(-c2cccc(NC(=O)Nc3ccc(Cl)cc3Cl)c2)c(Cl)s1 [Compound I-133] | 0.04
39 | Clc1cccc(-c2nc(N=C3NCCCN3)sc2Br)c1 [Compound I-185] | 1.25
40 | NC(N)=Nc1nc(-c2ccccc2-c2ccccc2)co1 [Compound I-73] | 1.25
41 | NC(N)=Nc1nc(-c2ccccc2Oc2ccccc2Cl)cs1 [Compound I-84] | 0.27
42 | Clc1cc(Cl)cc(-c2csc(N=C3NCCCN3)n2)c1 [Compound I-187] | 0.56
43 | Oc1c(Br)cc(-c2coc(N=C3NCCCN3)n2)cc1Br [Compound I-178] | 1.25
44 | NC(N)=Nc1nc(-c2cc3ccccc3o2)cs1 [Compound I-112] | 1.25
45 | COc1ccc(Oc2cccc(-c3csc(N=C4NCCCN4)n3)c2)c(C)c1 [Compound I-154] | 0.04

Each molecule was assayed on ATCC19606 strain (Acinetobacter baumannii) in the same assay as above. Conditions: combined with polymyxin E.
Format: cell-based
Design: key: FIC≤0.5 synergy; 0.5–1 additive; 1–2 indifferent; ≥2 antagonism
In short: as §2

Row | Compound | Synergistic activity (FIC value) ATCC19606
46 | NC(N)=Nc1nc(-c2cccc3c(Cl)cccc23)c[nH]1 [Compound I-65] | 0.5
47 | NC(N)=Nc1nc(-c2cccc(NC(=O)Nc3ccc(Cl)cc3Cl)c2)c(Cl)s1 [Compound I-133] | 0.38
48 | Clc1cccc(-c2nc(N=C3NCCCN3)sc2Br)c1 [Compound I-185] | 0.75
49 | NC(N)=Nc1nc(-c2ccccc2-c2ccccc2)co1 [Compound I-73] | 0.25
50 | NC(N)=Nc1nc(-c2ccccc2Oc2ccccc2Cl)cs1 [Compound I-84] | 0.63
51 | Clc1cc(Cl)cc(-c2csc(N=C3NCCCN3)n2)c1 [Compound I-187] | 0.25
52 | Oc1c(Br)cc(-c2coc(N=C3NCCCN3)n2)cc1Br [Compound I-178] | 0.51
53 | NC(N)=Nc1nc(-c2cc3ccccc3o2)cs1 [Compound I-112] | 0.51
54 | COc1ccc(Oc2cccc(-c3csc(N=C4NCCCN4)n3)c2)c(C)c1 [Compound I-154] | 0.38

What follows are molecules tested on ATCC13883 strain (Klebsiella pneumoniae) in the same assay as above. Conditions: combined with polymyxin E.
Format: cell-based
Design: key: FIC≤0.5 synergy; 0.5–1 additive; 1–2 indifferent; ≥2 antagonism
In short: as §2

Row | Compound | Synergistic activity (FIC value) ATCC13883
55 | NC(N)=Nc1nc(-c2cccc3c(Cl)cccc23)c[nH]1 [Compound I-65] | 1.25
56 | NC(N)=Nc1nc(-c2cccc(NC(=O)Nc3ccc(Cl)cc3Cl)c2)c(Cl)s1 [Compound I-133] | 0.19
57 | Clc1cccc(-c2nc(N=C3NCCCN3)sc2Br)c1 [Compound I-185] | 1.25
58 | NC(N)=Nc1nc(-c2ccccc2-c2ccccc2)co1 [Compound I-73] | 1.25
59 | NC(N)=Nc1nc(-c2ccccc2Oc2ccccc2Cl)cs1 [Compound I-84] | 0.09
60 | Clc1cc(Cl)cc(-c2csc(N=C3NCCCN3)n2)c1 [Compound I-187] | 0.31
61 | Oc1c(Br)cc(-c2coc(N=C3NCCCN3)n2)cc1Br [Compound I-178] | 1.25
62 | NC(N)=Nc1nc(-c2cc3ccccc3o2)cs1 [Compound I-112] | 1.25
63 | COc1ccc(Oc2cccc(-c3csc(N=C4NCCCN4)n3)c2)c(C)c1 [Compound I-154] | 0.19

The molecules below were run on ATCC9027 strain (Pseudomonas aeruginosa) in the same assay as above. Conditions: combined with polymyxin E.
Format: cell-based
Design: key: FIC≤0.5 synergy; 0.5–1 additive; 1–2 indifferent; ≥2 antagonism
In short: as §2

Row | Compound | Synergistic activity (FIC value) ATCC9027
64 | NC(N)=Nc1nc(-c2cccc3c(Cl)cccc23)c[nH]1 [Compound I-65] | 1.25
65 | NC(N)=Nc1nc(-c2cccc(NC(=O)Nc3ccc(Cl)cc3Cl)c2)c(Cl)s1 [Compound I-133] | 0.04
66 | Clc1cccc(-c2nc(N=C3NCCCN3)sc2Br)c1 [Compound I-185] | 1.25
67 | NC(N)=Nc1nc(-c2ccccc2-c2ccccc2)co1 [Compound I-73] | 0.52
68 | NC(N)=Nc1nc(-c2ccccc2Oc2ccccc2Cl)cs1 [Compound I-84] | 0.04
69 | Clc1cc(Cl)cc(-c2csc(N=C3NCCCN3)n2)c1 [Compound I-187] | 0.5
70 | Oc1c(Br)cc(-c2coc(N=C3NCCCN3)n2)cc1Br [Compound I-178] | 1.25
71 | NC(N)=Nc1nc(-c2cc3ccccc3o2)cs1 [Compound I-112] | 0.52
72 | COc1ccc(Oc2cccc(-c3csc(N=C4NCCCN4)n3)c2)c(C)c1 [Compound I-154] | 0.04
